Experimental data published in ChEMBL document CHEMBL1133962, “Bicyclic anti-VZV nucleosides: Thieno analogues retain full antiviral activity” (Bioorg Med Chem Lett, 2001).
pEC50: −log10 of the molar value.

What was measured:
HEL [1] = experiment: Minimal cytotoxic concentration required to alter microscopically detectable cell (of human embryonic lung cells (HEL)) morphology; type: functional
HEL [2] = experiment: Antiviral activity was measured as effective concentration required to reduce thymidine kinase-deficient. Varicella Zoster virus (07/1)-induced plaque formation in human embryonic lung cells; type: functional, cell-based
HEL [3] = experiment: Antiviral activity was measured as effective concentration required to reduce Varicella Zoster virus (YS)-induced plaque formation in human embryonic lung cells; type: functional, cell-based
HEL [4] = experiment: Antiviral activity was measured as effective concentration required to reduce thymidine kinase-deficient. Varicella Zoster virus (YS/R)-induced plaque formation in human embryonic lung cells; type: functional, cell-based
HEL [5] = experiment: Antiviral activity was measured as effective concentration required to reduce Varicella Zoster virus (OKA)-induced plaque formation in human embryonic lung cells; type: functional, cell-based
HEL [6] = experiment: Cytotoxic concentration required to inhibit growth of human embryonic lung cells (HEL); type: functional

In the case of `CCCCCCCCCCc1cc2cn([C@H]3C[C@H](O)[C@@H](CO)O3)c(=O)nc2o1`, the MCC (HEL [1]) was > 50 µM, the pEC50 (HEL [2]) was < 4.30 and the pEC50 (HEL [3]) was 8.10. For the same molecule, the pEC50 (HEL [4]) was < 4.30, the pEC50 (HEL [5]) was 7.82 and the CC50 (HEL [6]) was > 50000 nM.

With `CCCCCCCCc1cc2cn([C@H]3C[C@H](O)[C@@H](CO)O3)c(=O)nc2s1` the MCC (HEL [1]) was 20 µM, the pEC50 (HEL [2]) was ≤ 5.30 and the pEC50 (HEL [3]) was 8.30. For the same molecule, the pEC50 (HEL [4]) was < 5.30, the pEC50 (HEL [5]) was 8.70 and the CC50 (HEL [6]) was 53000 nM.

`CCCCc1cc2cn([C@H]3C[C@H](O)[C@@H](CO)O3)c(=O)nc2s1` was tested, and the MCC (HEL [1]) was ≥ 100 µM, the pEC50 (HEL [2]) was ≤ 3.70 and the pEC50 (HEL [3]) was 6.82. The pEC50 (HEL [4]) was 3.82, the pEC50 (HEL [5]) was 6.80 and the CC50 (HEL [6]) was > 200000 nM.

For `CCCCCCc1cc2cn([C@H]3C[C@H](O)[C@@H](CO)O3)c(=O)nc2s1`, the MCC (HEL [1]) was 125 µM, the pEC50 (HEL [2]) was ≤ 4.30 and the pEC50 (HEL [3]) was 6.85. The pEC50 (HEL [4]) was ≤ 4.30, the pEC50 (HEL [5]) was 6.85 and the CC50 (HEL [6]) was > 200000 nM.

With `CCCCCCCCCCc1cc2cn([C@H]3C[C@H](O)[C@@H](CO)O3)c(=O)nc2s1` the MCC (HEL [1]) was 20 µM, the pEC50 (HEL [2]) was < 5.30 and the pEC50 (HEL [3]) was 7.22. The pEC50 (HEL [4]) was < 5.30, the pEC50 (HEL [5]) was 7.52 and the CC50 (HEL [6]) was 54000 nM.

With `CCCCCCCCCc1cc2cn([C@H]3C[C@H](O)[C@@H](CO)O3)c(=O)nc2s1` the MCC (HEL [1]) was > 20 µM, the pEC50 (HEL [2]) was < 4.70 and the pEC50 (HEL [3]) was 8.00. The pEC50 (HEL [4]) was < 4.70, the pEC50 (HEL [5]) was 8.00 and the CC50 (HEL [6]) was > 20000 nM.

`CCCCCCCCCCCCc1cc2cn([C@H]3C[C@H](O)[C@@H](CO)O3)c(=O)nc2s1` was tested, and the MCC (HEL [1]) was 12 µM, the pEC50 (HEL [2]) was < 5.30 and the pEC50 (HEL [3]) was 6.52. The pEC50 (HEL [4]) was < 5.30, the pEC50 (HEL [5]) was 6.70 and the CC50 (HEL [6]) was 49000 nM.

With `Nc1nc2c(ncn2COCCO)c(=O)[nH]1` [ACYCLOVIR] the MCC (HEL [1]) was > 200 µM, the pEC50 (HEL [2]) was 4.40 and the pEC50 (HEL [3]) was 5.82. For the same molecule, the pEC50 (HEL [4]) was 4.36, the pEC50 (HEL [5]) was 5.96 and the CC50 (HEL [6]) was > 400000 nM.
